pIC50: −log10 of the molar value. Where two headings read alike, the source gives them in different places.
Tested on: Caki-1 cells (human clear cell renal cell carcinoma cells)
Test: MTT cell viability / IC50 assay, Caki-1
Format: cell-based
Method: Cell culture: In the following examples, unless otherwise specified, all cell lines are purchased from American Type Culture Collection and cultured in American Type Culture Collection (ATCC)-recommended media, with fetal bovine serum (FBS) to a final concentration of 10% and 1× penicillin/streptomycin at 37° C. with 5% CO2 in a cell culture incubator, unless otherwise specified. Unless otherwise specified, culture is 2D. Where culture is 3D, low attachment plates are used, with the same media. C4-2B (ATCC® CRL-3315™, human prostate cancer cells of epithelial morphology) parental cell line and drug-resistant cells derived therefrom) are cultured in RPMI-1640 with 10% FBS. MDVR cells (an Enzalutamide-resistant variety of C4-2B prostate cancer cells formed as described below) are cultured as indicated for the parental C4-2B cells. Caki-1 cells (human clear cell renal cell carcinoma cells) are cultured in ATCC-formulated McCoy's 5a Medium Modified (ATCC Catalog No. 30-2007) with 10% FBS. PC3 cells (ATCC® CRL-1435™, a human prostate cancer cell line of epithelial morphology initiated from a bone metastasis of a grade IV prostatic adenocarcinoma) are cultured in F-12K with 10% FBS. 22RV1 Prostate Cancer (PC) cells (ATCC® CRL-2505™, a human prostate carcinoma cell line of epithelial morphology) are cultured in RPMI-1640 with 10% FBS. DU145 cells (ATCC® HTB-81™, a human cell line derived from a prostate-originating brain metastase, not detectably hormone sensitive, not expressing prostate antigen; forms adenocarcinoma grade II in nude mice) are cultured in ATCC-formulated Eagle's Minimum Essential Medium (EMEM, Catalog No. 30-2003). H446 cells (ATCC® HTB-171™, a human small cell carcinoma SC lung cancer (SCLC) cell line derived from a metastatic site) are cultured in RPMI-1640 with 10% FBS. H358 cells (ATCC® CRL-5807™, a human non-small cell lung cancer (NSCLC) cell line that expresses protein and RNA of SP-A, the major lung surfactant associated protein, and produces tumors in athymic nude mice) are cultured in RPMI-1640 Medium with 10% FBS. BxPC3 cells (ATCC® CRL-1687™, an adenocarcinoma-derived pancreatic cancer cell line that expresses pancreas cancer specific antigen and carcinoembryonic antigen and forms tumors in nude mice) are cultured in RPMI-1640 with 10% FBS.
Example 1: A cell assay is performed exposing cells cultured as described above to various drugs indicated below for 24 hours unless otherwise indicated. Each of the cell lines is treated either with a THAD (e.g. DZ-DHA-ether, MI-148-bis-DHA), or for comparison, with the DHA mono-ester “DZ-DHA”; alternatively/additionally, DZ1 and/or unconjugated DHA may serve as comparants. For each cell line, the IC50 is determined for each drug in concentrations from 0 to 100 μM. […] In the controls (not shown in the figures), the cells are exposed to DMSO (vehicle) for a final concentration that equals the highest concentration of the drug tested, to a maximum concentration less than 0.1% v/v. 4 hours before culture end/SDS addition, 10 μL MTT (3-(4,5-Dimethyl-2-thiazolyl)-2,5-diphenyl-2H-tetrazolium bromide, Sigma-Aldrich) is added to wells containing the cells. At the end of culture, 100 μl 10% SDS is added and then the plate containing the cells is placed in a 37° C. cell culture incubator for 8 hours. The absorbance density of the supernatant is read on a 96-well microplate reader at wavelength 595 nm. The results of Caki-1 and MDRV are indicated in the table below along with preliminary results for further cancer cell lines (including, e.g., C4-2B, Abi-R, PC3, 22Rv1, DU145, H358, H446, BxPC3), and the corresponding curves are shown in FIG. 2A (Caki-1) and FIG. 2B (MDVR).

In the case of `C[C@@H]1CC[C@H]2[C@@H](C)C(OC(=O)CCCCCN3/C(=C/C=C4\CCCC(/C=C/C5=[N+](CCCCS(=O)(=O)[O-])c6ccccc6C5(C)C)=C4Cl)C(C)(C)c4ccccc43)O[C@@H]3OC4(C)CC[C@@H]1[C@]32OO4` (stereo in doubt) [DZ3a], the pIC50 (Caki-1, 24 hours, relative IC50, read-out: IC50) was 4.91 and the pIC50 (Caki-1, unit inferred, read-out: IC50 (FIG. 2A description)) was < 4.92.

Reference: patent US20230226198A1, “Artemisinin Derivatives” (DA ZEN THERANOSTICS, INC., priority 2019, published 2023)
